Assay [1] deals with T1, Transcriptional activator protein LuxR (Aliivibrio fischeri) (UniProt P12746).
T1 sequence (whole entry): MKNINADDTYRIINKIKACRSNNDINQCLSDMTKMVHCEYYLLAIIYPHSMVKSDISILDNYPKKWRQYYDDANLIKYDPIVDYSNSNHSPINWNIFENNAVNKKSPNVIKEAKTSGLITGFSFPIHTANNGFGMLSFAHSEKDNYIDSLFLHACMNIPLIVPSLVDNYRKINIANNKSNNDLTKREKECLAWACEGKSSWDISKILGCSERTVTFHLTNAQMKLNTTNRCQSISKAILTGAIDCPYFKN
Kind of assay: Agonist activity at Vibrio fischeri LuxR expressed in Escherichia coli NM522 containing Photorhabdus luminescens LuxCDABE assessed as induction of quorum sensing activation mediated bioluminescence at 0.1 to 200 uM after 4 to 5 hrs by bioluminescence assay. Type of assay: functional.

Assay [2] has as its target T2, Transcriptional activator protein LuxR (Aliivibrio fischeri, UniProt P12746).
T2 sequence (P12746 whole entry): T1 sequence (whole entry)
Kind of assay: Antagonist activity at Vibrio fischeri LuxR expressed in Escherichia coli NM522 containing Photorhabdus luminescens LuxCDABE assessed as inhibition of 3-oxo-C6-HSL-induced quorum sensing activation mediated bioluminescence after 4 to 5 hrs by bioluminescence assay. Type of assay: functional.

The text below walks through data of ChEMBL document CHEMBL1909612, “AHL-dependent quorum sensing inhibition: synthesis and biological evaluation of α-(N-alkyl-carboxamide)-γ-butyrolactones and α-(N-alkyl-sulfonamide)-γ-butyrolactones” (Bioorg Med Chem Lett, 2011).

Activity calls are given as the source filed them. The calls are words filed in the database; no cut-off is given here. Bounds are passed on as bounds.

For orientation: IC50 means the concentration needed to halve the response being measured. As for `CCCCCCCCCCNC(=O)C1CCOC1=O` (stereo not drawn), the result in assay [1] was inactive. Moreover, in assay [2], the IC50 was 75 µM.

On to `CCCCCCCCNC(=O)C1CCCC1=O` (stereo not drawn), for which the outcome in assay [1] was inactive. Besides, the IC50 in assay [2] turned out to be 77 µM.

For `CCCCCNC(=O)C1CCCC1=O` (stereo not drawn), the result in assay [1] was inactive. Besides, in assay [2], the IC50 came out at 40 µM.

Consider `CCCCCNC(=O)C1CCCC1O` (stereo not drawn), for which the IC50 in assay [2] came out at 92 µM.

For the compound `CCCCCNS(=O)(=O)C1CCOC1=O` (stereo not drawn), the result in assay [1] was inactive. For the same compound, in assay [2], the IC50 was 70 µM.

As for `CCCCCNC(=O)C1CCCC1O` (mixture of isomers) [listing 1 of 2 here], in assay [2], the IC50 was 200 µM.

As to `CCCCCCNC(=O)C1CCOC1=O` (stereo not drawn), the outcome in assay [1] was inactive. Besides, in assay [2], the IC50 is 54 µM.

Take `CCCCCCN(C)C(=O)C1CCOC1=O` (stereo not drawn): the result in assay [1] was inactive.

As to `CCCCNS(=O)(=O)C1CCOC1=O` (stereo not drawn), the outcome in assay [1] was inactive. The IC50 in assay [2] is greater than 200 µM.

In the case of `CCCCCCCCNC(=O)C1CCOC1=O` (stereo not drawn), the outcome in assay [1] was inactive. The IC50 in assay [2] was found to be 52 µM.

`CCCCN(C)C(=O)C1CCOC1=O` (stereo not drawn): the outcome in assay [1] was inactive.

Regarding `CCCCNC(=O)C1CCOC1=O` (stereo not drawn), the outcome in assay [1] was inactive. Also, the IC50 in assay [2] came out at 96 µM.

Consider `CCCCCNC(=O)C1CCOC1=O` (stereo not drawn), for which the outcome in assay [1] was inactive. Further, the IC50 in assay [2] was 34 µM.

Regarding `CCCCCNC(=O)C1CCCC1O` (mixture of isomers) [listing 2 of 2 here], the outcome in assay [1] was inactive.
